“And” between values parts separate entries of the source, which are not always exact repeats. Identical values can stand only once.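 Results reflect a 48-hour exposure of cells in 96-well plates to compound at five concentrations. Here, GI50 denotes the concentration required for 50% inhibition of growth. At the TGI there is no net growth.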
What follows are compounds tested on EKVX NSCLC (assay: DTP human tumour cell line panel, 48 h).

Compound	GI50 [µM]	TGI [µM]
COC(=O)c1cc2c(c(C(=O)OC)c1O)C(=O)C=CC2=O	> 9.1	> 41.4

Each compound was assayed on M14 melanoma (assay: DTP human tumour cell line panel, 48 h).

Compound	TGI [µM]	GI50 [µM]
CCc1nc2ccccc2c(=O)n1/N=C(\N=Nc1ccc(Cl)cc1)c1ccccc1Cl	> 100	
CSc1ccc(/C=C2/C[N+](C)(C)C/C(=C/c3ccc(SC)cc3)C2=O)cc1	28.8	
NCC(=O)NC(CCCC(NC(=O)CN)P(=O)(O)O)P(=O)(O)O (configuration not stated)	> 100	
CCOCNC(=O)N(COCC)COCC	> 100	
COC(=O)CSc1n[nH]c(-c2ccc(O)c([N+](=O)[O-])c2)n1	> 100	
NC1C2(CCCCCC2)NC(=O)C12CCCCCC2 (configuration not stated)	> 100	
COC(=O)c1cc2c(c(C(=O)OC)c1O)C(=O)C=CC2=O	> 66.9	> 9.1

What follows are compounds tested on SF-295 CNS (assay: DTP human tumour cell line panel, 48 h).

Compound	TGI [µM]	GI50 [µM]
CCc1nc2ccccc2c(=O)n1/N=C(\N=Nc1ccc(Cl)cc1)c1ccccc1Cl	> 100	
CSc1ccc(/C=C2/C[N+](C)(C)C/C(=C/c3ccc(SC)cc3)C2=O)cc1	65	
NCC(=O)NC(CCCC(NC(=O)CN)P(=O)(O)O)P(=O)(O)O (configuration not stated)	> 100	
CCOCNC(=O)N(COCC)COCC	> 100	
COC(=O)CSc1n[nH]c(-c2ccc(O)c([N+](=O)[O-])c2)n1	> 100	
NC1C2(CCCCCC2)NC(=O)C12CCCCCC2 (configuration not stated)	> 100	
COC(=O)c1cc2c(c(C(=O)OC)c1O)C(=O)C=CC2=O	> 56.3	> 9.1

What follows are compounds tested on SK-MEL-28 melanoma (assay: DTP human tumour cell line panel, 48 h).

Compound	TGI [µM]	GI50 [µM]
CCc1nc2ccccc2c(=O)n1/N=C(\N=Nc1ccc(Cl)cc1)c1ccccc1Cl	80.4	
CSc1ccc(/C=C2/C[N+](C)(C)C/C(=C/c3ccc(SC)cc3)C2=O)cc1	20.9	
NCC(=O)NC(CCCC(NC(=O)CN)P(=O)(O)O)P(=O)(O)O (configuration not stated)	> 100	
CCOCNC(=O)N(COCC)COCC	> 100	
COC(=O)CSc1n[nH]c(-c2ccc(O)c([N+](=O)[O-])c2)n1	> 100	
NC1C2(CCCCCC2)NC(=O)C12CCCCCC2 (configuration not stated)	> 100	
COC(=O)c1cc2c(c(C(=O)OC)c1O)C(=O)C=CC2=O	> 58.1	> 9.1

Each compound was assayed on HOP-18 NSCLC (assay: DTP human tumour cell line panel, 48 h).

Compound	TGI	GI50 [µM]
CCc1nc2ccccc2c(=O)n1/N=C(\N=Nc1ccc(Cl)cc1)c1ccccc1Cl	> 100 µM	
CSc1ccc(/C=C2/C[N+](C)(C)C/C(=C/c3ccc(SC)cc3)C2=O)cc1	79.2 µM	
NC1C2(CCCCCC2)NC(=O)C12CCCCCC2 (configuration not stated)	> 100 µM	
COC(=O)c1cc2c(c(C(=O)OC)c1O)C(=O)C=CC2=O	9.1 µM and 29.9 µM	16.3

Each compound was assayed on SNB-19 CNS (assay: DTP human tumour cell line panel, 48 h).

Compound	TGI [µM]	GI50 [µM]
CCOCNC(=O)N(COCC)COCC	> 100	
COC(=O)CSc1n[nH]c(-c2ccc(O)c([N+](=O)[O-])c2)n1	> 100	
NC1C2(CCCCCC2)NC(=O)C12CCCCCC2 (configuration not stated)	> 100	
COC(=O)c1cc2c(c(C(=O)OC)c1O)C(=O)C=CC2=O	> 60.7	> 9.1

What follows are compounds tested on OVCAR-4 ovarian (assay: DTP human tumour cell line panel, 48 h).

Compound	TGI [µM]	GI50 [µM]
COC(=O)CSc1n[nH]c(-c2ccc(O)c([N+](=O)[O-])c2)n1	> 100	
NC1C2(CCCCCC2)NC(=O)C12CCCCCC2 (configuration not stated)	> 100	
COC(=O)c1cc2c(c(C(=O)OC)c1O)C(=O)C=CC2=O	> 54	> 9.1

Each compound was assayed on UACC-257 melanoma (assay: DTP human tumour cell line panel, 48 h).

Compound	TGI [µM]	GI50 [µM]
CSc1ccc(/C=C2/C[N+](C)(C)C/C(=C/c3ccc(SC)cc3)C2=O)cc1	37.8	
NCC(=O)NC(CCCC(NC(=O)CN)P(=O)(O)O)P(=O)(O)O (configuration not stated)	> 100	
CCOCNC(=O)N(COCC)COCC	> 100	
COC(=O)CSc1n[nH]c(-c2ccc(O)c([N+](=O)[O-])c2)n1	> 100	
NC1C2(CCCCCC2)NC(=O)C12CCCCCC2 (configuration not stated)	> 100	
COC(=O)c1cc2c(c(C(=O)OC)c1O)C(=O)C=CC2=O	> 48.7	> 9.1
